Experimental data taken from ChEMBL document CHEMBL5120794, “Development of 5-hydroxyl-1-azabenzanthrone derivatives as dual binding site and selective acetylcholinesterase inhibitors” (Eur J Med Chem, 2022).
pIC50: −log10 of the molar value. Calls of active or inactive are those of the source. No cut-off for these calls is given here.

Key:
PC-12 = experiment: Cytoprotective activity against H2O2-induced oxidative damage in rat PC-12 cells assessed as cell viability at 1 uM preincubated for 4 hrs followed by H2O2 treatment for another 24 hrs by MTT assay; assay type: functional, cell-based; conditions: time 28.0 hrs
Cholinesterase = Cholinesterase (Equus caballus, UniProt P81908)
Chain of Cholinesterase (P81908 whole entry): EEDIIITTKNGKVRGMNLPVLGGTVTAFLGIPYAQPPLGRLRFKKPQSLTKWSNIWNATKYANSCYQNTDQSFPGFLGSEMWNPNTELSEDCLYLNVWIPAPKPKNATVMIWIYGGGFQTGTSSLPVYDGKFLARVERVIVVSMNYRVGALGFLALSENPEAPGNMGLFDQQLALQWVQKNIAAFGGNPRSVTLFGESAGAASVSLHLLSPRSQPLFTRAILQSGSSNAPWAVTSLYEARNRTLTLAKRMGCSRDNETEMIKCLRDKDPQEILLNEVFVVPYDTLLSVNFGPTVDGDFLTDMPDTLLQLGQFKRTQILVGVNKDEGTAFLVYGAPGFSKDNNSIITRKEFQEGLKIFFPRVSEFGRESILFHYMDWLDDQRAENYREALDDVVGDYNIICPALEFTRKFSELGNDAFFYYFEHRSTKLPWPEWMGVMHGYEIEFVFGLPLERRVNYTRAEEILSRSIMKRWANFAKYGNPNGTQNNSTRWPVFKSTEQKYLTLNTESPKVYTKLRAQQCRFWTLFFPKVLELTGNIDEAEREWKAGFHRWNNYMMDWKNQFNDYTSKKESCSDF
Description: Inhibition of equine serum BchE using S-butyryl thiocholine iodide as substrate incubated for 10 mins followed by substrate addition measured at 0 to 180 secs by Ellman's method

[1] = target: Amyloid-beta precursor protein (Homo sapiens) (UniProt P05067); experiment: Inhibition of amyloid beta (1 to 42) (unknown origin) self-induced aggregation at 25 uM measured after 46 to 48 hrs by Thioflavin binding assay relative to control; conditions: time 46-48 hrs
Chain of Amyloid-beta precursor protein (Homo sapiens) (P05067 whole entry): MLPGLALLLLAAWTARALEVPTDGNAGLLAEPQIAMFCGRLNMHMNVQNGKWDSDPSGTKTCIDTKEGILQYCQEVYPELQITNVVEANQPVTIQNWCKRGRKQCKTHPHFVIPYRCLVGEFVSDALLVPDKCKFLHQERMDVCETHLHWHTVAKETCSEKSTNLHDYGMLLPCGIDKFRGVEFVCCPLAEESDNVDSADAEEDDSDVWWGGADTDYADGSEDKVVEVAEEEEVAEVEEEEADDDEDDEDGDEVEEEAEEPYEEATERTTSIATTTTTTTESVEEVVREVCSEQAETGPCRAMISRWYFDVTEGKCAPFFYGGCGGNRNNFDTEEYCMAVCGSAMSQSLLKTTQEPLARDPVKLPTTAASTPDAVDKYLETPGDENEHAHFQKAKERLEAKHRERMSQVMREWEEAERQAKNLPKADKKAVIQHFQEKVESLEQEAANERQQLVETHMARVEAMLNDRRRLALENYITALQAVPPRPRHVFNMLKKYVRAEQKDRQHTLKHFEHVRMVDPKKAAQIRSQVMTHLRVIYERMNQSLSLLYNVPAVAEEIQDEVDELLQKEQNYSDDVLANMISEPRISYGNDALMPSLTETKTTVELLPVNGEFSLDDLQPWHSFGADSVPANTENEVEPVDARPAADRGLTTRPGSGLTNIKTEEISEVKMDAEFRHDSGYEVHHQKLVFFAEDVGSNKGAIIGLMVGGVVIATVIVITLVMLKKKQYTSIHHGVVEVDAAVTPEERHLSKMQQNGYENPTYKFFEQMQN

Acetylcholinesterase = Acetylcholinesterase (Electrophorus electricus, UniProt O42275); experiment: Inhibition of Electrophorus electricus AchE using […] as substrate incubated for 10 mins followed by substrate addition measured at 0 to 180 secs by Ellman's method
Chain of Acetylcholinesterase (O42275 whole entry): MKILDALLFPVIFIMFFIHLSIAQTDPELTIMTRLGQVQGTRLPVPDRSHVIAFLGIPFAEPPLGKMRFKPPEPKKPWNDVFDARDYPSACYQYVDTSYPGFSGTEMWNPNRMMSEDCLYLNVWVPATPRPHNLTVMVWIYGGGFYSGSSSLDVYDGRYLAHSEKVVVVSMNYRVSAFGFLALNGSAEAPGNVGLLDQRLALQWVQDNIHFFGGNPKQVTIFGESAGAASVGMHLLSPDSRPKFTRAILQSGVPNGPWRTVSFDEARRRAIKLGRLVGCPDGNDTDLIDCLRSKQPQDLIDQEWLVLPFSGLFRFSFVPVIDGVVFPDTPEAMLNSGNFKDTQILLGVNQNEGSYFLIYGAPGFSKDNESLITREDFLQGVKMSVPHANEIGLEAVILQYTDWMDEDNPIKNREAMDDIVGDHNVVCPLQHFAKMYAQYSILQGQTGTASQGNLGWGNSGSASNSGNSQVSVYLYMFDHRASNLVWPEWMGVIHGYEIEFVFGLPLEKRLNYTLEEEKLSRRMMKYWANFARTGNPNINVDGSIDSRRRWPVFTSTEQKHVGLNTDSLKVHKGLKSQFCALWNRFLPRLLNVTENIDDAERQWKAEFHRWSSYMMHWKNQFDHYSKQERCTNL

in vitro = conditions: PAMPA

SMILES	Activity (PC-12)	pIC50 (Cholinesterase)	inhibition [1]	pIC50 (Acetylcholinesterase)	Papp (in vitro)
O=C1c2ccccc2-c2nccc3cc(OCCCCN4CCOCC4)cc1c23	Active	< 4.00	13.1%	5.14	–
CN1CCN(CCCOc2cc3c4c(nccc4c2)-c2ccccc2C3=O)CC1	–	< 4.00	29.1%	6.09	–
O=C1c2ccccc2-c2nccc3cc(OCCCN4CCN(CCO)CC4)cc1c23	Active	< 4.00	9.7%	6.72	–
O=C1c2ccccc2-c2nccc3cc(OCCCN4CCCCC4)cc1c23	Active	4.45	41.2%	6.85	–
O=C1c2ccccc2-c2nccc3cc(OCCCCN4CCCCC4)cc1c23	Active	4.81	32.1%	6.82	–
CCn1cc(C(=O)O)c(=O)c2cc(F)c(N3CCNC(C)C3)c(F)c21 (stereo not given) [LOMEFLOXACIN]	–	–	–	–	0.9 ×10⁻⁶ cm/s
O=C1c2ccccc2-c2nccc3cc(OCCN4CCCCC4)cc1c23	Active	5.17	27.5%	5.43	–
Clc1cccc(Cl)c1N=C1NCCN1 [CLONIDINE]	–	–	–	–	5.7 ×10⁻⁶ cm/s
